Measured values reported in patent publication US20220128542A1, “TREATMENT EFFICIENCY EVALUATION” (TX MEDIC AB, priority 2019, published 2022).

Tested on: brain of rats subjected to severe traumatic brain injury (sTBI)
Assay: Ingenuity pathway analysis of differentially regulated genes after sTBI (canonical pathways, diseases and molecular functions; Example 4)
Set-up: species or system rat
Conditions: 2 days after TBI
Experimental: Pathway analysis of the differentially regulated genes was carried out using the Ingenuity pathway analysis package. The analysis was performed with special reference to pathways and molecular processes and diseases associated with neurodegenerative disease, including dementia, Alzheimer's disease, ALS, TBI and stroke, and with scarring and fibrosis, including glaucoma and normal pressure hydrocephalus (NPH) after subarachnoid haemorrhage.

[1] = TBI + 5 mg/kg LMW-DS relative to control

With sodium salt of dextran sulfate [LMW-DS] the “Apoptosis (disease/function), z score” value (TBI + 5 mg/kg LMW-DS) was 0.601, the “Behavior (disease/function), z score” value (TBI + 5 mg/kg LMW-DS) was −2.009 and the “Carcinoma (disease/function), z score” value (TBI + 5 mg/kg LMW-DS) was −2.071. The “Cell death (disease/function), z score” value (TBI + 5 mg/kg LMW-DS) was 0.051, the “Cell death of antigen presenting cells (disease/function), z score” value (TBI + 5 mg/kg LMW-DS) was −0.62 and the “Cell death of immune cells (disease/function), z score” value (TBI + 5 mg/kg LMW-DS) was −1. The “Cell death of tumor cell lines (disease/function), z score” value (TBI + 5 mg/kg LMW-DS) was −1.947, the “Cell movement (disease/function), z score” value (TBI + 5 mg/kg LMW-DS) was −3.723 and the “Cell movement of tumor cell lines (disease/function), z score” value (TBI + 5 mg/kg LMW-DS) was −2.078. For the same substance, the “Cell proliferation of leukocyte cell lines (disease/function), z score” value (TBI + 5 mg/kg LMW-DS) was −2.754, the “Cellular homeostasis (disease/function), z score” value (TBI + 5 mg/kg LMW-DS) was −3.19 and the “Chemotaxis (disease/function), z score” value (TBI + 5 mg/kg LMW-DS) was −3.642. For the same substance, the “Concentration of prostaglandin (disease/function), z score” value (TBI + 5 mg/kg LMW-DS) was −0.911, the “Development of vasculature (disease/function), z score” value (TBI + 5 mg/kg LMW-DS) was −1.534 and the “Digestive organ tumor (disease/function), z score” value (TBI + 5 mg/kg LMW-DS) was −1.149. The “Digestive system cancer (disease/function), z score” value (TBI + 5 mg/kg LMW-DS) was −2.221, the “Edema (disease/function), z score” value (TBI + 5 mg/kg LMW-DS) was 3.386 and the “Epithelial neoplasm (disease/function), z score” value (TBI + 5 mg/kg LMW-DS) was −1.393. The “Extracranial solid tumor (disease/function), z score” value (TBI + 5 mg/kg LMW-DS) was −0.992, the “Feeding (disease/function), z score” value (TBI + 5 mg/kg LMW-DS) was −0.895 and the “Growth of tumor (disease/function), z score” value (TBI + 5 mg/kg LMW-DS) was −1.233. For the same substance, the “Hematologic cancer (disease/function), z score” value (TBI + 5 mg/kg LMW-DS) was −1.067, the “Incidence of tumor (disease/function), z score” value (TBI + 5 mg/kg LMW-DS) was −0.731 and the “Leukocyte migration (disease/function), z score” value (TBI + 5 mg/kg LMW-DS) was −2.163. The “Leukopoiesis (disease/function), z score” value (TBI + 5 mg/kg LMW-DS) was −3.549, the “Locomotion (disease/function), z score” value (TBI + 5 mg/kg LMW-DS) was −0.039 and the “Lymphocyte homeostasis (disease/function), z score” value (TBI + 5 mg/kg LMW-DS) was −2.94. The “Lymphocytic cancer (disease/function), z score” value (TBI + 5 mg/kg LMW-DS) was −0.48, the “Lymphocytic neoplasm (disease/function), z score” value (TBI + 5 mg/kg LMW-DS) was −0.48 and the “Lymphopoiesis (disease/function), z score” value (TBI + 5 mg/kg LMW-DS) was −3.105. For the same substance, the “Lymphoproliferative disorder (disease/function), z score” value (TBI + 5 mg/kg LMW-DS) was −0.48, the “Malignant solid tumor (disease/function), z score” value (TBI + 5 mg/kg LMW-DS) was −1.492 and the “Metabolism of hormone (disease/function), z score” value (TBI + 5 mg/kg LMW-DS) was −1.632. The “Migration of cells (disease/function), z score” value (TBI + 5 mg/kg LMW-DS) was −3.087, the “NF-κB Signaling canonical pathway, effect” value (TBI + 5 mg/kg LMW-DS) was “Inhibited” and the “Necrosis (disease/function), z score” value (TBI + 5 mg/kg LMW-DS) was −1.503. For the same substance, the “Neoplasia of leukocytes (disease/function), z score” value (TBI + 5 mg/kg LMW-DS) was −0.48, the “Non-melanoma solid tumor (disease/function), z score” value (TBI + 5 mg/kg LMW-DS) was −1.249 and the “Osteoarthritis Pathway canonical pathway, effect” value (TBI + 5 mg/kg LMW-DS) was “Inhibited”. The “Proliferation of hematopoietic progenitor cells (disease/function), z score” value (TBI + 5 mg/kg LMW-DS) was −2.951, the “Quantity of cells (disease/function), z score” value (TBI + 5 mg/kg LMW-DS) was −3.092 and the “Quantity of epithelial tissue (disease/function), z score” value (TBI + 5 mg/kg LMW-DS) was −0.028. The “Quantity of neuroglia (disease/function), z score” value (TBI + 5 mg/kg LMW-DS) was −1.446, the “Resorption of bone (disease/function), z score” value (TBI + 5 mg/kg LMW-DS) was −0.478 and the “Role of NFAT in Cardiac Hypertrophy canonical pathway, effect” value (TBI + 5 mg/kg LMW-DS) was “Inhibited”. For the same substance, the “Secretion of molecule (disease/function), z score” value (TBI + 5 mg/kg LMW-DS) was 1.634, the “Size of body (disease/function), z score” value (TBI + 5 mg/kg LMW-DS) was −4.771 and the “Synthesis of hormone (disease/function), z score” value (TBI + 5 mg/kg LMW-DS) was −1.632. For the same substance, the “Transport of molecule (disease/function), z score” value (TBI + 5 mg/kg LMW-DS) was 0.248, the “Vasculogenesis (disease/function), z score” value (TBI + 5 mg/kg LMW-DS) was −2.274 and the “Adrenomedullin Signaling pathway canonical pathway, z score” value [1] was −2.236. The “NF-κB Signaling canonical pathway, z score” value [1] was −2, the “Osteoarthritis Pathway canonical pathway, z score” value [1] was −2.646 and the “Role of NFAT in Cardiac Hypertrophy canonical pathway, z score” value [1] was −1.633. The “Apoptosis (disease/function), z score” value (TBI + 15 mg/kg LMW-DS) was −0.502, the “Apoptosis of tumor cell lines (disease/function), z score” value (TBI + 15 mg/kg LMW-DS) was 0.09 and the “Behavior (disease/function), z score” value (TBI + 15 mg/kg LMW-DS) was −0.139. For the same substance, the “Cell death (disease/function), z score” value (TBI + 15 mg/kg LMW-DS) was −0.141, the “Necrosis (disease/function), z score” value (TBI + 15 mg/kg LMW-DS) was −0.477 and the “Quantity of blood cells (disease/function), z score” value (TBI + 15 mg/kg LMW-DS) was −0.34. For the same substance, the “Quantity of cells (disease/function), z score” value (TBI + 15 mg/kg LMW-DS) was −0.797, the “Quantity of lymphocytes (disease/function), z score” value (TBI + 15 mg/kg LMW-DS) was −0.943 and the “Transcription of RNA (disease/function), z score” value (TBI + 15 mg/kg LMW-DS) was −2.488. For the same substance, the “Effect on diseases or functions annotation: Abdominal cancer” value (TBI + 1 mg/kg LMW-DS) was “Inhibited”, the “Effect on diseases or functions annotation: Abdominal carcinoma” value (TBI + 1 mg/kg LMW-DS) was “Inhibited” and the “Effect on diseases or functions annotation: Abdominal neoplasm” value (TBI + 1 mg/kg LMW-DS) was “Inhibited”. For the same substance, the “Effect on diseases or functions annotation: Activation of blood cells” value (TBI + 1 mg/kg LMW-DS) was “Activated”, the “Effect on diseases or functions annotation: Activation of cells” value (TBI + 1 mg/kg LMW-DS) was “Activated” and the “Effect on diseases or functions annotation: Activation of leukocytes” value (TBI + 1 mg/kg LMW-DS) was “Activated”. The “Effect on diseases or functions annotation: Activation of lymphocytes” value (TBI + 1 mg/kg LMW-DS) was “Inhibited”, the “Effect on diseases or functions annotation: Adhesion of tumor cell lines” value (TBI + 1 mg/kg LMW-DS) was “Activated” and the “Effect on diseases or functions annotation: Apoptosis” value (TBI + 1 mg/kg LMW-DS) was “Inhibited”.
